Values quoted from earlier work, collected in patent publication US5993850A, “Preparation of multivesicular liposomes for controlled release of encapsulated biologically active substances” (priority 1994, dated 1999).

System: strains of both gram negative and gram positive bacteria
Details: background statement; cited from earlier work

NCC[C@H](O)C(=O)N[C@@H]1C[C@H](N)[C@@H](O[C@H]2O[C@H](CN)[C@@H](O)[C@H](O)[C@H]2O)[C@H](O)[C@H]1O[C@H]1O[C@H](CO)[C@@H](O)[C@H](N)[C@H]1O [amikacin]
antibacterial activity: clinically significant activity against strains of both gram negative and gram positive bacteria
